The text below walks through data of patent publication US20040043959A1, “Combination therapies for treating methylthioadenosine phosphorylase deficient cells” (priority 2002, published 2004).

The structures appear in SMILES notation.

The target in the assay is T1, Human MTAP (Homo sapiens, UniProt Q13126).
T1 construct: six-histidine tag (His6) (N); made in house; host or cells: E. coli BL21 DE3
T1 sequence (Q13126 1-283): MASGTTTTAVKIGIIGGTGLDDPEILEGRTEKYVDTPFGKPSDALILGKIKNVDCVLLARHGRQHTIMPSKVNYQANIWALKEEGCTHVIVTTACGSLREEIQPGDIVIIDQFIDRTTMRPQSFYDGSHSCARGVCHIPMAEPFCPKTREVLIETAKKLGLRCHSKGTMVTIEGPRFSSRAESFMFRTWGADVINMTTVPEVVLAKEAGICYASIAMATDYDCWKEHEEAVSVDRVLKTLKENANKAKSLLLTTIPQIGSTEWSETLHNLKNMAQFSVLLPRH
Nature of the assay: MTAP substrate assay, coupled spectrophotometric (adenine, xanthine oxidase). Conditions: 2 nM MTAP; for activity at 50 µM: 10 min, compound 50 uM, relative to MTA at 50 uM, read-out: MT-A—50: initial velocity as a percentage of the initial velocity with MTA as substrate; for MT-A—10: initial velocity as a percentage of the initial velocity with MTA as substrate: compound 10 uM, relative to MTA at 10 uM. Type of assay: biochemical. The procedure:
An enzymatic assay to determine the activity of MTAP against a given substrate was performed. Human MTAP containing an N-terminal six-histidine tag was expressed in E. coli BL21 DE3 cells. The protein was purified to homogeneity by Ni2+ affinity chromatography. Enzymatic activity was measured using a coupled spectrophotometric assay designed to monitor the reaction product adenine (Savarese, T. M., Crabtree, G. W., and Parks, R. E. Jr., (1980) Biochem. Pharmacol. 30, 189-199). Various concentrations of the indicated 5′-deoxymethylthio adenosine (MTA) or substrate were incubated in assay buffer (40 mM potassium phosphate buffer, 1 mM, and DTT 0.8 units/ml xanthine oxidase coupling enzyme) for 5 minutes at 37° C. The reaction was initiated by the addition of MTAP. The exact concentration of enzyme used varied for each substrate tested and ranged from 2 nM to 500 nM. Activity as a function of enzyme concentration was determined for each substrate tested to ensure that the appropriate enzyme concentration was used. Activity was detected by continuous monitoring of absorbance at 305 nm for 10 minutes (ΔE=15,500 M^−1).
Library compounds (10 and 50 uM) were tested using the assay described above with 2 nM MTAP enzyme. The resultant initial velocities are reported as a percentage of the initial velocity observed when MTA is the substrate. MTA controls, 10 and 50 uM concentrations, were run on each plate alongside the library compounds.

With `Cc1cccc2[nH]c(SC[C@H]3O[C@@H](n4cnc5c(N)ncnc54)[C@H](O)[C@@H]3O)nc12` [2(G)(46), (2R, 3R, 4S, 5S)-2-(6-amino-9H-purin-9-yl)-5-{[(4-methyl-1H-benzimidazol-2-yl)-thio]methyl}tetrahydro-furan-3,4-diol], the activity at 50 µM came to 45% and the “MT-A—10: initial velocity as a percentage of the initial velocity with MTA as substrate” value was 42%.
On to `Nc1ncnc2c1ncn2[C@@H]1O[C@H](CSc2nc3cnccc3[nH]2)[C@@H](O)[C@H]1O` [2(G)(47), (2R, 3R, 4S, 5S)-2-(6-amino-9H-purin-9-yl)-5-[(1H-imidazo[4,5-c]-pyridin-2-ylthio)methyl]-tetrahydrofuran-3,4-diol], for which the activity at 50 µM worked out at 50% and the “MT-A—10: initial velocity as a percentage of the initial velocity with MTA as substrate” value was found to be 49%.
For the compound `Cc1ccc2[nH]c(SC[C@H]3O[C@@H](n4cnc5c(N)ncnc54)[C@H](O)[C@@H]3O)nc2c1` [2(G)(48), (2R, 3R, 4S, 5S)-2-(6-amino-9H-purin-9-yl)-5-{[(5-methyl-1H-benzimidazol-2-yl)thio]-methyl}tetrahydro-furan-3,4-diol], the activity at 50 µM amounted to 5% and the “MT-A—10: initial velocity as a percentage of the initial velocity with MTA as substrate” value turned out to be 3%.
In the case of `Nc1ncnc2c1ncn2[C@@H]1O[C@H](CSc2nc(O)c3cn[nH]c3n2)[C@@H](O)[C@H]1O` [2(G)(49), (2R, 3R, 4S, 5S)-2-(6-amino-9H-purin-9-yl)-5-{[(4-hydroxy-1H-pyrazolo[3,4-d]pyrimidin-6-yl)thio]methyl}tetra-hydrofuran-3,4-diol], the activity at 50 µM was found to be 46% and the “MT-A—10: initial velocity as a percentage of the initial velocity with MTA as substrate” value was found to be 52%.
For the compound `Nc1ncnc2c1ncn2[C@@H]1O[C@H](CSc2nc3ccccc3c(=O)[nH]2)[C@@H](O)[C@H]1O` [2(G)(50), 2-({[(2S, 3S, 4R, 5R)-2-(6-amino-9H-purin-9-yl)-dihydroxytetrahydro-furan-2-yl]methyl}thio)-quinazolin-4-(3H)-one], the activity at 50 µM amounted to 37% and the “MT-A—10: initial velocity as a percentage of the initial velocity with MTA as substrate” value amounted to 9%.
`Nc1ccc2[nH]c(SC[C@H]3O[C@@H](n4cnc5c(N)ncnc54)[C@H](O)[C@@H]3O)nc2c1` [2(G)(51), (2R, 3R, 4S, 5S)-2-(6-amino-9H-purin-9-yl)-5-{[(5-amino-1H-benzoimidazol-2-yl)thio]methyl}tetrahydro-furan-3,4-diol]: the activity at 50 µM turned out to be 36% and the “MT-A—10: initial velocity as a percentage of the initial velocity with MTA as substrate” value is recorded as 16%.
Take `Cc1nnc(SC[C@H]2O[C@@H](n3cnc4c(N)ncnc43)[C@H](O)[C@@H]2O)s1` [2(G)(52), (2R, 3R, 4S, 5S)-2-(6-amino-9H-purin-9-yl)-5-{[(5-methyl-1,3,4-thiadiazol-2-yl)thio]methyl}tetrahydro-furan-3,4-diol]: the activity at 50 µM worked out at 23% and the “MT-A—10: initial velocity as a percentage of the initial velocity with MTA as substrate” value turned out to be 19%.
For `Nc1ncnc2c1ncn2[C@@H]1O[C@H](CSc2nc[nH]n2)[C@@H](O)[C@H]1O` [2(G)(53), (2R, 3R, 4S, 5S)-2-(6-amino-9H-purin-9-yl)-5-[(1H-1,2,4-triazol-3-ylthio)methyl]tetrahydro-furan-3,4-diol], in that order: 57% and 58%.
In the same order, the values of `COC(=O)CSC[C@H]1O[C@@H](n2cnc3c(N)ncnc32)[C@H](O)[C@@H]1O` [2(G)(54), methyl ({[(2S, 3S, 4R, 5R)-5-(6-amino-9H-purin-9-yl)-3,4-dihydroxy-tetrahydrofuran-2-yl]methyl}thio)acetate] are 44% and 36%.
As to `Nc1ncnc(SC[C@H]2O[C@@H](n3cnc4c(N)ncnc43)[C@H](O)[C@@H]2O)n1` [2(G)(55), (2R, 3R, 4S, 5S)-2-(6-amino-9H-purin-9-yl)-5-{[(4-amino-1,3,5-triazin-2-yl)thio]methyl}tetra-hydrofuran-3,4-diol], the activity at 50 µM came out at 47% and the “MT-A—10: initial velocity as a percentage of the initial velocity with MTA as substrate” value came to 43%.
Consider `CNC(=O)CSC[C@H]1O[C@@H](n2cnc3c(N)ncnc32)[C@H](O)[C@@H]1O` [2(G)(56), 2-({[(2S, 3S, 4R, 5R)-5-(6-amino-9H-purin-9-yl)-dihydroxytetrahydrofuran-2-yl]methyl}thio)-N-methylacetamide], for which the activity at 50 µM came out at 10% and the “MT-A—10: initial velocity as a percentage of the initial velocity with MTA as substrate” value was determined as 6%.
With `Nc1ncnc2c1ncn2[C@@H]1O[C@H](CSCCCCO)[C@@H](O)[C@H]1O` [2(G)(57)], the activity at 50 µM is 45% and the “MT-A—10: initial velocity as a percentage of the initial velocity with MTA as substrate” value stood at 31%.
`Nc1ncnc2c1ncn2[C@@H]1O[C@H](CSCCc2ccncc2)[C@@H](O)[C@H]1O` [2(G)(58), (2R, 3R, 4S, 5S)-2-(6-amino-9H-purin-9-yl)-5-{[(2-pyridin-4-ylethyl)thio]methyl}tetra-hydrofuran-3,4-diol]: the activity at 50 µM amounted to 47% and the “MT-A—10: initial velocity as a percentage of the initial velocity with MTA as substrate” value stood at 38%.
For the compound `Nc1cccnc1SC[C@H]1O[C@@H](n2cnc3c(N)ncnc32)[C@H](O)[C@@H]1O` [2(G)(59), (2R, 3R, 4S, 5S)-2-(6-amino-9H-purin-9-yl)-5-{[(3-aminopyridin-2-yl)thio]methyl}tetra-hydrofuran-3,4-diol], the activity at 50 µM worked out at 47% and the “MT-A—10: initial velocity as a percentage of the initial velocity with MTA as substrate” value stood at 18%.
For `NC(=O)c1cccnc1SC[C@H]1O[C@@H](n2cnc3c(N)ncnc32)[C@H](O)[C@@H]1O` [2(G)(60), 2-({[(2S, 3S, 4R, 5R)-5-(6-amino-9H-purin-9-yl)-3,4-dihydroxytetrahydro-furan-2-yl]methyl}thio)-nicotinamide], in that order: 8% and 4%.
For `Nc1ncnc2c1ncn2[C@@H]1O[C@H](CSCCc2cnccn2)[C@@H](O)[C@H]1O` [2(G)(61)], in that order: 20% and 15%.
In the same order, the values of `CC1OCCC1SC[C@H]1O[C@@H](n2cnc3c(N)ncnc32)[C@H](O)[C@@H]1O` (stereo partly drawn) [2(G)(62), (2R, 3R, 4S, 5S)-2-(6-amino-9H-purin-9-yl)-5-{[(2-methyltetra-hydrofuran-3-yl)thio]methyl}tetrahydrofuran-3,4-diol] are 7% and 6%.
On to `Cn1c(CO)cnc1SC[C@H]1O[C@@H](n2cnc3c(N)ncnc32)[C@H](O)[C@@H]1O` [2(G)(63), (2R, 3R, 4S, 5S)-2-(6-amino-9H-purin-9-yl)-5-({[5-(hydroxymethyl)-1-methyl-1H-imidazol-2-yl]thio}methyl)tetra-hydrofuran-3,4-diol], for which the activity at 50 µM was found to be 5% and the “MT-A—10: initial velocity as a percentage of the initial velocity with MTA as substrate” value turned out to be 5%.
With `Nc1ncnc2c1ncn2[C@@H]1O[C@H](CSc2nc(O)c3cc[nH]c3n2)[C@@H](O)[C@H]1O` [2(G)(64), (2R, 3R, 4S, 5S)-2-(6-amino-9H-purin-9-yl)-5-{[(4-hydroxy-7H-pyrrolo[2,3-d]pyrimidin-2-yl)thio]methyl}tetra-hydrofuran-3,4-diol], the activity at 50 µM worked out at 48% and the “MT-A—10: initial velocity as a percentage of the initial velocity with MTA as substrate” value was 48%.
For the compound `CC(C)n1c(O)nnc1SC[C@H]1O[C@@H](n2cnc3c(N)ncnc32)[C@H](O)[C@@H]1O` [2(G)(65), (2R, 3R, 4S, 5S)-2-(6-amino-9H-purin-9-yl)-5-{[(5-hydroxy-4-isopropyl-4H-1,2,4-triazol-3-yl)thio]methyl}tetrahydrofuran-3,4-diol], the activity at 50 µM was 4% and the “MT-A—10: initial velocity as a percentage of the initial velocity with MTA as substrate” value is reported as 5%.
As to `CN(C)Cc1nnc(SC[C@H]2O[C@@H](n3cnc4c(N)ncnc43)[C@H](O)[C@@H]2O)n1C` [2(G)(66), (2R, 3R, 4S, 5S)-2-(6-amino-9H-purin-9-yl)-5-[({5-[(dimethylamino)-methyl]-4-methyl-4H-1,2,4-triazol-3-yl}thio)methyl]tetrahydro-furan-3,4-diol], the activity at 50 µM was found to be 6% and the “MT-A—10: initial velocity as a percentage of the initial velocity with MTA as substrate” value came to 6%.
Take `Cc1nnc(SC[C@H]2O[C@@H](n3cnc4c(N)ncnc43)[C@H](O)[C@@H]2O)n1C` [2(G)(67), (2R, 3R, 4S, 5S)-2-(6-amino-9H-purin-9-yl)-5-{[(4,5-dimethyl-4H-1,2,4-triazol-3-yl)thio]methyl}tetra-hydrofuran-3,4-diol]: the activity at 50 µM is 47% and the “MT-A—10: initial velocity as a percentage of the initial velocity with MTA as substrate” value worked out at 45%.
